Test system: male CD/Crl:CD(SD) rats
Test: Acute toxicity study, single peroral application, 14‐day observation
Assay type: in vivo
Settings: for Ataxia / Chromodacryorrhea / Dyspnoea / Inhibition of body weight gain / Mean body weight gain, After 7 d / Mean body weight, After 7 d / Mortality within 6 h / Mortality within 7 h / Mortality within 14 h / Mortality within 24 h / Necropsy findings / Piloerection / Ptosis / Reduced motility / Reduced muscle tone / Mean body weight gain, End / Mean body weight, End / Mean body weight, Start: p.o., males, n = 5; for Mean body weight gain, End / Mean body weight, End: 14‐day observation; for Mean body weight, Start: before administration
Method: In total, 90 male CD®/Crl:CD(SD) rats from Charles River Laboratories, Deutschland GmbH, were used after randomization. Five rats were selected for each concentration of the corresponding experimental substance. […] In addition, a control group was formed with five rats receiving only the HPMC gel.
Feeding was stopped approximately 16 h before the start of test substance application, whereas tap water continued to be available ad libitum. Granulated structural wood was used as bedding material in the cages; the material was changed and the cages were cleaned twice a week. […] The rooms were illuminated (approximately 150 lux from a ceiling height of approximately 1.50 m) and darkened for 12 h in turns.
Each animal was kept under observation, so that any behavior deviating from the norm could be systematically recorded. Observations were made before the peroral application of the respective active substance, immediately after, and 5, 15, 30, and 60 min and 3, 6, and 24 h after the start of application. […] We focused on the changes in the skin and fur, the eyes and mucous membranes, respiration, circulation, the autonomous and central nervous systems, somatomotor activity, and behavior patterns. They were also observed for possible tremors, convulsions, salivation, diarrhea, lethargy, sleep, and coma. Mortality checks were performed at least once a day to minimize the loss of animals during the study. The time of death was recorded as accurately as possible. Individual body weights were recorded before the administration of experimental substances and, subsequently, at weekly intervals, until the end of the study and at death. Weight changes were calculated when survival exceeded 1 day.
At the end of the experiments, all surviving animals were sacrificed, dissected, and examined macroscopically. All notable pathological changes were recorded. A microscopic examination of all organs showing obvious lesions was performed on animals that survived for 24 h or longer. Autopsy and macroscopic inspection of prematurely deceased animals were performed as soon as possible after death.

Structure (SMILES): CCCCCCCCCCCCn1ccnc1 [I‐an, 1‐imidazolyldodecane]
- Ataxia (10 mg/kg b.w.): None
- Chromodacryorrhea (10 mg/kg b.w.): None
- Dyspnoea (10 mg/kg b.w.): None
- Inhibition of body weight gain (10 mg/kg b.w.): None
- Mean body weight gain, After 7 d (10 mg/kg b.w.): +24.4%
- Mean body weight, After 7 d (10 mg/kg b.w.): 293.2 g
- Mortality within 6 h (10 mg/kg b.w.): 0
- Mortality within 7 h (10 mg/kg b.w.): 0
- Mortality within 14 h (10 mg/kg b.w.): 0
- Mortality within 24 h (10 mg/kg b.w.): 0
- Necropsy findings (10 mg/kg b.w.): None
- Piloerection (10 mg/kg b.w.): None
- Ptosis (10 mg/kg b.w.): None
- Reduced motility (10 mg/kg b.w.): None
- Reduced muscle tone (10 mg/kg b.w.): None
- Mean body weight gain, End (10 mg/kg b.w.): +39.4%
- Mean body weight, End (10 mg/kg b.w.): 328.4 g
- Mean body weight, Start (10 mg/kg b.w.): 235.6 g
- Ataxia (50 mg/kg b.w.): None
- Chromodacryorrhea (50 mg/kg b.w.): None
- Dyspnoea (50 mg/kg b.w.): None
- Inhibition of body weight gain (50 mg/kg b.w.): None
- Mean body weight gain, After 7 d (50 mg/kg b.w.): +26.6%
- Mean body weight, After 7 d (50 mg/kg b.w.): 296.4 g
- Mortality within 6 h (50 mg/kg b.w.): 0
- Mortality within 7 h (50 mg/kg b.w.): 0
- Mortality within 14 h (50 mg/kg b.w.): 0
- Mortality within 24 h (50 mg/kg b.w.): 0
- Necropsy findings (50 mg/kg b.w.): None
- Piloerection (50 mg/kg b.w.): None
- Ptosis (50 mg/kg b.w.): None
- Reduced motility (50 mg/kg b.w.): None
- Reduced muscle tone (50 mg/kg b.w.): None
- Mean body weight gain, End (50 mg/kg b.w.): +40.6%
- Mean body weight, End (50 mg/kg b.w.): 329.2 g
- Mean body weight, Start (50 mg/kg b.w.): 234.2 g
- Ataxia (100 mg/kg b.w.): None
- Chromodacryorrhea (100 mg/kg b.w.): None
- Dyspnoea (100 mg/kg b.w.): None
- Inhibition of body weight gain (100 mg/kg b.w.): None
- Mean body weight gain, After 7 d (100 mg/kg b.w.): +22.0%
- Mean body weight, After 7 d (100 mg/kg b.w.): 283.6 g
- Mortality within 6 h (100 mg/kg b.w.): 0
- Mortality within 7 h (100 mg/kg b.w.): 0
- Mortality within 14 h (100 mg/kg b.w.): 0
- Mortality within 24 h (100 mg/kg b.w.): 0
- Necropsy findings (100 mg/kg b.w.): None
- Piloerection (100 mg/kg b.w.): None
- Ptosis (100 mg/kg b.w.): None
- Reduced motility (100 mg/kg b.w.): None
- Reduced muscle tone (100 mg/kg b.w.): None
- Mean body weight gain, End (100 mg/kg b.w.): +34.2%
- Mean body weight, End (100 mg/kg b.w.): 311.8 g
- Mean body weight, Start (100 mg/kg b.w.): 232.4 g
- Ataxia (250 mg/kg b.w.): None
- Chromodacryorrhea (250 mg/kg b.w.): None
- Dyspnoea (250 mg/kg b.w.): None
- Inhibition of body weight gain (250 mg/kg b.w.): None
- Mean body weight gain, After 7 d (250 mg/kg b.w.): +19.4%
- Mean body weight, After 7 d (250 mg/kg b.w.): 266.2 g
- Mortality within 6 h (250 mg/kg b.w.): 0
- Mortality within 7 h (250 mg/kg b.w.): 0
- Mortality within 14 h (250 mg/kg b.w.): 0
- Mortality within 24 h (250 mg/kg b.w.): 0
- Necropsy findings (250 mg/kg b.w.): None
- Piloerection (250 mg/kg b.w.): None
- Ptosis (250 mg/kg b.w.): None
- Reduced motility (250 mg/kg b.w.): None
- Reduced muscle tone (250 mg/kg b.w.): None
- Mean body weight gain, End (250 mg/kg b.w.): +32.7%
- Mean body weight, End (250 mg/kg b.w.): 296.0 g
- Mean body weight, Start (250 mg/kg b.w.): 223.0 g
- Toxic signs (250 mg/kg bw): None
- Time of premature death (500 mg/kg b.w.): 6 days
- Ataxia (500 mg/kg b.w.): None
- Chromodacryorrhea (500 mg/kg b.w.): None
- Dyspnoea (500 mg/kg b.w.): None
- Inhibition of body weight gain (500 mg/kg b.w.): None
- Mean body weight gain, After 7 d (500 mg/kg b.w.): +21.8%
- Mean body weight, After 7 d (500 mg/kg b.w.): 288.7 g
- Mortality within 6 h (500 mg/kg b.w.): 0
- Mortality within 7 h (500 mg/kg b.w.): 2
- Mortality within 14 h (500 mg/kg b.w.): 2
- Mortality within 24 h (500 mg/kg b.w.): 0
- Necropsy findings (500 mg/kg b.w.): None
- Piloerection (500 mg/kg b.w.): None
- Ptosis (500 mg/kg b.w.): None
- Reduced motility (500 mg/kg b.w.): None
- Reduced muscle tone (500 mg/kg b.w.): None
- Mean body weight gain, End (500 mg/kg b.w.): +38.4%
- Mean body weight, End (500 mg/kg b.w.): 328.0 g
- Mean body weight, Start (500 mg/kg b.w.): 237.0 g
- Toxic signs (500 mg/kg bw): Mortality
- Time of premature death (1000 mg/kg b.w.): 5 days
- Ataxia (1000 mg/kg b.w.): None
- Chromodacryorrhea (1000 mg/kg b.w.): None
- Dyspnoea (1000 mg/kg b.w.): None
- Inhibition of body weight gain (1000 mg/kg b.w.): None
- Mean body weight gain, After 7 d (1000 mg/kg b.w.): +15.0%
- Mean body weight, After 7 d (1000 mg/kg b.w.): 270.3 g
- Mortality within 6 h (1000 mg/kg b.w.): 0
- Mortality within 7 h (1000 mg/kg b.w.): 1
- Mortality within 14 h (1000 mg/kg b.w.): 1
- Mortality within 24 h (1000 mg/kg b.w.): 0
- Necropsy findings (1000 mg/kg b.w.): None
- Piloerection (1000 mg/kg b.w.): None
- Ptosis (1000 mg/kg b.w.): None
- Reduced motility (1000 mg/kg b.w.): None
- Reduced muscle tone (1000 mg/kg b.w.): None
- Mean body weight gain, End (1000 mg/kg b.w.): +36.2%
- Mean body weight, End (1000 mg/kg b.w.): 320.0 g
- Mean body weight, Start (1000 mg/kg b.w.): 235.0 g
- Toxic signs (1000 mg/kg bw): Mortality
- Premature deaths in the acute toxicity study (all dose groups, 30 rats per substance): three
- Macroscopic necropsy findings (all doses): None
- Lowest lethal dose (rats, single p.o. dose): 500 mg/kg bw
- No Observed Adverse Effect Level (rats, single p.o. dose): 250 mg/kg bw
- LD50(14 d) (rats, single p.o. dose, 14 days): >1000 mg/kg bw
